# In US7470793B2, “Thiazol-(bi)cycloalkyl-carboxanilides” (priority 2002, dated 2008):
# Where two headings read alike, the source gives them in different places.
# Legend:
# [1] = test system: Sphaerotheca fuliginea; test: Sphaerotheca test (cucumber)/protective; assay type: in vivo; conditions: Podosphaera fuliginea, 168 h, read-out: Efficacy in %
# Procedure: Sphaerotheca Test (Cucumber)/Protective
# • Solvents: 24.5 parts by weight of acetone • 24.5 parts by weight of N,N-dimethylacetamide • Emulsifier: 1 part by weight of alkylaryl polyglycol ether
# (§1) To produce a suitable preparation of active compound, 1 part by weight of active compound is mixed with the stated amounts of solvents and emulsifier, and the concentrate is diluted with water to the desired concentration.
# To test for protective activity, young cucumber plants are sprayed with the preparation of active compound at the stated application rate. After the spray coating has dried on, the plants are inoculated with an aqueous spore suspension of Sphaerotheca fuliginea. The plants are then placed in a greenhouse at about 23° C. and a relative atmospheric humidity of about 70%.
# (§2) Evaluation is carried out 7 days after the inoculation. 0% means an efficacy which corresponds to that of the control, whereas an efficacy of 100% means that no infection is observed.
# [2] = logP determination by HPLC on reversed-phase column (EEC directive 79/831 Annex V.A8); assay type: physicochemical; conditions: reversed-phase C18 HPLC column, pH 2.3, C 18 reversed-phase, 43° C., 0.1% aqueous phosphoric acid/acetonitrile gradient
# Procedure: The logP values given in the Preparation Examples were determined in accordance with EEC directive 79/831 Annex V.A8 by HPLC (High Performance Liquid Chromatography) on a reversed-phase column (C 18). Temperature: 43° C.
# Mobile phases for the determination in the acidic range: 0.1% aqueous phosphoric acid, acetonitrile; linear gradient from 10% acetonitrile to 90% acetonitrile.
# Calibration was carried out using unbranched alkan-2-ones (having 3 to 16 carbon atoms) with known logP values (determination of the logP values by the retention times using linear interpolation between two successive alkanones).
# [3] = test system: Venturia inaequalis; test: Venturia test (apple)/protective; assay type: in vivo; conditions: apple plants, protective spray, application rate 100 g/ha, evaluation 10 days after inoculation
# Procedure: Venturia Test (Apple)/Protective
# • Solvents: 2.5 parts by weight of acetone • 24.5 parts by weight of dimethylacetamide • Emulsifier: 1.0 part by weight of alkylaryl polyglycol ether
# as §1
# To test for protective activity, young plants are sprayed with the preparation of active compound at the stated application rate. After the spray coating has dried on, the plants are inoculated with an aqueous conidia suspension of the apple scab pathogen Venturia inaequalis and then remain in an incubation cabinet at about 20° C. and 100% relative atmospheric humidity for 1 day.
# The plants are then placed in a greenhouse at about 21° C. and a relative atmospheric humidity of about 90%.
# (§3) Evaluation is carried out 10 days after the inoculation. 0% means an efficacy which corresponds to that of the control, whereas an efficacy of 100% means that no infection is observed.
# [4] = test system: Puccinia recondita; test: Puccinia test (wheat)/protective; assay type: in vivo; conditions: wheat plants, protective spray, application rate 500 g/ha, evaluation 10 days after inoculation
# Procedure: Puccinia Test (Wheat)/Protective
# • Solvent: 25 parts by weight of N,N-dimethylacetamide • Emulsifier: 0.6 part by weight of alkylaryl polyglycol ether
# (§4) To produce a suitable preparation of active compound, 1 part by weight of active compound is mixed with the stated amounts of solvent and emulsifier, and the concentrate is diluted with water to the desired concentration.
# To test for protective activity, young plants are sprayed with the preparation of active compound at the stated application rate. After the spray coating has dried on, the plants are sprayed with a conidia suspension of Puccinia recondita. The plants remain in an incubation cabin at about 20° C. and 100% relative atmospheric humidity for 48 hours.
# The plants are then placed in a greenhouse at a temperature of about 20° C. and a relative atmospheric humidity of 80% to promote the development of rust pustules.
# as §3
# [5] = test system: Alternaria solani; test: Alternaria test (tomato)/protective; assay type: in vivo; conditions: tomato plants, protective spray, application rate 750 g/ha, evaluation 7 days after inoculation
# Procedure: Alternaria Test (Tomato)/Protective
# • Solvent: 49 parts by weight of N,N-dimethylformamide • Emulsifier: 1 part by weight of alkylaryl polyglycol ether
# as §4
# To test for protective activity, young tomato plants are sprayed with the preparation of active compound at the stated application rate. 1 day after the treatment, the plants are inoculated with a spore suspension of Alternaria solani. The plants then remain at 100% relative atmospheric humidity and 20° C. for 24 hours. Subsequently, the plants remain at 96% relative atmospheric humidity and a temperature of 20° C.
# as §2
# [6] = cucumber plants, protective spray, application rate 100 g/ha, evaluation 7 days after inoculation
chromatographic logP [2],SMILES,"pest or weed control at 100 g/ha [1, 6] [%]",Efficacy in % [3] [%],Efficacy in % [4] [%],Efficacy in % [5] [%],pest or weed control at 100 g/ha [1] [%]
3.96,Cc1nc(C(F)F)c(C(=O)N(C)c2ccccc2C2CC3CCC2C3)s1 (stereo not shown) [Example 19],98,–,–,–,–
3.5,"Cc1nc(C(F)F)c(C(=O)Nc2ccccc2C2CCCCC2)s1 [Example 1, N-(2-cyclohexylphenyl)-4-(difluoromethyl)-2-methyl-1,3-thiazole-5-carboxamide]",89,100,100,–,–
3.85,Cc1nc(C(F)F)c(C(=O)N(C)c2ccccc2C2CCCCC2)s1 [Example 20],100,–,–,–,–
3.95,CC(=O)N(C(=O)c1sc(C)nc1C(F)F)c1ccccc1C1CC2CCC1C2 (stereo not shown) [Example 21],98,96,–,100,–
3.88,Cc1nc(C(F)F)c(C(=O)Nc2ccccc2C2CCC[C@@H](C)C2)s1 (stereo partly shown) [Example 18],100,100,–,100,–
4.27,Cc1nc(C(F)F)c(C(=O)Nc2ccc(Br)cc2C2CC3CCC2C3)s1 (stereo not shown) [Example 14],100,100,–,95,–
4.06,Cc1nc(C(F)F)c(C(=O)Nc2ccccc2C2CCCCCCC2)s1 [Example 8],93,100,100,–,–
3.86,CC(=O)N(C(=O)c1sc(C)nc1C(F)F)c1ccccc1C1CCCCC1 [Example 22],96,–,93,–,–
3.24,Cc1nc(C(F)F)c(C(=O)Nc2ccc(F)cc2C2CCCC2)s1 [Example 6],88,99,–,–,–

SMILES,chromatographic logP [2],"pest or weed control at 100 g/ha [1, 6] [%]",Efficacy in % [3] [%],Efficacy in % [4] [%],Efficacy in % [5] [%],pest or weed control at 100 g/ha [1] [%]
"Cc1nc(C(F)F)c(C(=O)Nc2ccccc2C2CC3CCC2C3)s1 (stereo not shown) [Example 2, N-(2-bicyclo[2.2.1]hept-2-ylphenyl)-4-(difluoromethyl)-2-methyl-1,3-thiazole-5-carboxamide]",3.63,–,100,100,–,100
